Measured values as given in patent US11078216B2, “Bisaryl amides as NRF2 activators” (GLAXOSMITHKLINE INTELLECTUAL PROPERTY DEVELOPMENT LIMITED, priority 2016, dated 2021).
Where a name gives a salt, the structure may show the parent alone.

Test system: NRF2 (NQO1 activity as marker for NRF2 activation), BEAS-2B cells
Experiment: BEAS-2B NQO1 MTT Assay
Assay type: cell-based
Settings: EC50 of NQO1 specific activity induction, 48 hours incubation, read-out: EC50
Description: NAD(P)H:quinone oxidoreductase 1 (NQO1), also called DT diaphorase, is a homodimeric FAD-containing enzyme that catalyzes obligatory NAD(P)H-dependent two-electron reductions of quinones and protects cells against the toxic and neoplastic effects of free radicals and reactive oxygen species arising from one-electron reductions. The transcription of NQO1 is finely regulated by NRF2, and thus NQO1 activity is a good marker for NRF2 activation. On day one, frozen BEAS-2B cells (ATCC) are thawed in a water bath, counted, and re-suspended at a concentration of 250,000 cells/mL. Fifty microliters of cells are plated in 384 well black clear-bottomed plates. Plates are incubated at 37° C., 5% CO2 overnight. On day two, plates are centrifuged and 50 nL of compound or controls are added to the cells. Plates are then incubated at 37° C., 5% CO2 for 48 hours. On day four, medium is aspirated from the plate and crude cell lysates are made by adding 13 uL of 1× Cell Signaling Technologies lysis buffer with 1 Complete, Mini, EDTA-free Protease Inhibitor Tablet (Roche) for each 10 mL of lysis buffer. After lysis plates are incubated for 20 minutes at room temperature. Two microliters of lysate are removed for use in Cell Titer Glo assay (Promega) and MTT cocktail is prepared (Prochaska et. al. 1998) for measurement of NQO1 activity. Fifty microliters of MTT cocktail is added to each well, plate is centrifuged, and analyzed on an Envision plate reader (Perkin Elmer) using Absorbance 570 nm label for 30 minutes. Product formation is measured kinetically and the EC50 of NQO1 specific activity induction is calculated by plotting the change in absorbance (Delta OD/min) versus the log of compound concentration followed by 3-parameter fitting.
EC50s<1 nM (+++++), EC50s 1 nM-10 nM (++++), EC50s 10 nM-100 nM (+++), EC50s 100 nM-1 uM (++), EC50s 1-10 uM (+), EC50s>10 uM (−), or were not determined (ND).

Row | SMILES | EC50
1 | CCCn1cc(CO[C@H](c2ccc(C)c(CN3C[C@@H](C)Cc4ccccc4S3(=O)=O)c2)C(C)(C)C(=O)Nc2cccnc2)nn1 [Example 51, (R)-2,2-Dimethyl-3-(4-methyl-3-(((S)-4-methyl-1,1-dioxido-4,5-dihydrobenzo[f][1,2]thiazepin-2(3H)-yl(methyl)phenyl)-3-((1-propyl-1H-1,2,3-triazol-4-yl)methoxy)-N-(pyridin-3-yl)propanamide, Formic acid salt] | 0.1 to 1 µM
2 | CCCn1cc(CO[C@H](c2ccc(C)c(CN3C[C@@H](C)Cc4ccncc4S3(=O)=O)c2)C(C)(C)C(=O)Nc2cccnc2)nn1 [Example 54] | 0.01 to 0.1 µM

Same assay, conditions: Homo sapiens, EC50 of NQO1 specific activity induction, 48 hours incubation, read-out: EC50

Row | SMILES | EC50
3 | CC[C@@H]1CN(Cc2cc([C@H](CC(=O)NCC3CCCO3)c3ccc4c(nnn4CC)c3C)ccc2C)S(=O)(=O)c2cccnc2O1 (stereo partly drawn) [Example 37, (3S)-3-(3-(((R)-4-Ethyl-1,1-dioxido-3,4-dihydro-2H-pyrido[2,3-b][1,4,5]oxathiazepin-2-yl)methyl)-4-methylphenyl)-3-(1-ethyl-4-methyl-1H-benzo[d][1,2,3]triazol-5-yl)-N-((tetrahydrofuran-2-yl)methyl)propanamide] | 0.1 to 1 µM
4 | CC[C@@H]1CN(Cc2cc([C@H](CC(=O)NCCF)c3ccc4c(nnn4CC)c3C)ccc2C)S(=O)(=O)c2cccnc2O1 [Example 38, (S)-3-(3-(((R)-4-Ethyl-1,1-dioxido-3,4-dihydro-2H-pyrido[2,3-b][1,4,5]oxathiazepin-2-yl)methyl)-4-methylphenyl)-3-(1-ethyl-4-methyl-1H-benzo[d][1,2,3]triazol-5-yl)-N-(2-fluoroethyl)propanamide] | 0.1 to 1 µM
5 | CC[C@@H]1CN(Cc2cc([C@H](CC(=O)NCC(=O)NC)c3ccc4c(nnn4CC)c3C)ccc2C)S(=O)(=O)c2cccnc2O1 [Example 39, (S)-3-(3-(((R)-4-Ethyl-1,1-dioxido-3,4-dihydro-2H-pyrido[2,3-b][1,4,5]oxathiazepin-2-yl)methyl)-4-methylphenyl)-3-(1-ethyl-4-methyl-1H-benzo[d][1,2,3]triazol-5-yl)-N-(2-(methylamino)-2-oxoethyl)propanamide] | 1 to 10 µM
6 | CCOCCNC(=O)C[C@@H](c1ccc(C)c(CN2C[C@@H](CC)Oc3ncccc3S2(=O)=O)c1)c1ccc2c(nnn2CC)c1C [Example 40, (S)-N-(2-Ethoxyethyl)-3-(3-(((R)-4-ethyl-1,1-dioxido-3,4-dihydro-2H-pyrido[2,3-b][1,4,5]oxathiazepin-2-yl)methyl)-4-methylphenyl)-3-(1-ethyl-4-methyl-1H-benzo[d][1,2,3]triazol-5-yl)propanamide] | 0.1 to 1 µM
7 | CC[C@@H]1CN(Cc2cc([C@H](CC(=O)NCCOC)c3ccc4c(nnn4CC)c3C)ccc2C)S(=O)(=O)c2cccnc2O1 [Example 41, (S)-3-(3-(((R)-4-Ethyl-1,1-dioxido-3,4-dihydro-2H-pyrido[2,3-b][1,4,5]oxathiazepin-2-yl)methyl)-4-methylphenyl)-3-(1-ethyl-4-methyl-1H-benzo[d][1,2,3]triazol-5-yl)-N-(2-methoxyethyl)propanamide] | 0.1 to 1 µM
8 | CC[C@@H]1CN(Cc2cc([C@H](CC(=O)NCC(=O)NC(C)C)c3ccc4c(nnn4CC)c3C)ccc2C)S(=O)(=O)c2cccnc2O1 [Example 42, (S)-3-(3-(((R)-4-Ethyl-1,1-dioxido-3,4-dihydro-2H-pyrido[2,3-b][1,4,5]oxathiazepin-2-yl)methyl)-4-methylphenyl)-3-(1-ethyl-4-methyl-1H-benzo[d][1,2,3]triazol-5-yl)-N-(2-(isopropylamino)-2-oxoethyl)propanamide] | 1 to 10 µM
9 | CC[C@@H]1CN(Cc2cc([C@H](CC(=O)NC(C)C(N)=O)c3ccc4c(nnn4CC)c3C)ccc2C)S(=O)(=O)c2cccnc2O1 (stereo partly drawn) [Example 43, (3S)—N-(1-Amino-1-oxopropan-2-yl)-3-(3-(((R)-4-ethyl-1,1-dioxido-3,4-dihydro-2H-pyrido[2,3-b][1,4,5]oxathiazepin-2-yl)methyl)-4-methylphenyl)-3-(1-ethyl-4-methyl-1H-benzo[d][1,2,3]triazol-5-yl)propanamide] | 0.1 to 1 µM
10 | CC[C@@H]1CN(Cc2cc([C@H](CC(=O)NCCCC#N)c3ccc4c(nnn4CC)c3C)ccc2C)S(=O)(=O)c2cccnc2O1 [Example 44, (S)-N-(3-Cyanopropyl)-3-(3-(((R)-4-ethyl-1,1-dioxido-3,4-dihydro-2H-pyrido[2,3-b][1,4,5]oxathiazepin-2-yl)methyl)-4-methylphenyl)-3-(1-ethyl-4-methyl-1H-benzo[d][1,2,3]triazol-5-yl)propanamide] | 0.1 to 1 µM
11 | CC[C@@H]1CN(Cc2cc([C@H](CC(=O)NCCNC(C)=O)c3ccc4c(nnn4CC)c3C)ccc2C)S(=O)(=O)c2cccnc2O1 [Example 45, (S)—N-(2-Acetamidoethyl)-3-(3-(((R)-4-ethyl-1,1-dioxido-3,4-dihydro-2H-pyrido[2,3-b][1,4,5]oxathiazepin-2-yl)methyl)-4-methylphenyl)-3-(1-ethyl-4-methyl-1H-benzo[d][1,2,3]triazol-5-yl)propanamide] | 0.1 to 1 µM
12 | CC[C@@H]1CN(Cc2cc([C@@H](CC(=O)Nc3cccnc3)c3ccc4c(nnn4C)c3C)ccc2C)Cc2ncccc2O1 [Example 46, (R)-3-(1,4-Dimethyl-1H-benzo[d][1,2,3]triazol-5-yl)-3-(3-(((R)-2-ethyl-2,3-dihydropyrido[2,3-f][1,4]oxazepin-4(5H)-yl)methyl)-4-methylphenyl)-N-(pyridin-3-yl)propanamide, Formic Acid Salt] | 1 to 10 µM
13 | CC[C@@H]1CN(Cc2cc([C@H](CC(=O)Nc3cccnc3)c3ccc4c(nnn4C)c3C)ccc2C)Cc2ncccc2O1 [Example 47, (S)-3-(1,4-Dimethyl-1H-benzo[d][1,2,3]triazol-5-yl)-3-(3-(((R)-2-ethyl-2,3-dihydropyrido[2,3-f][1,4]oxazepin-4(5H)-yl)methyl)-4-methylphenyl)-N-(pyridin-3-yl)propanamide, Formic Acid Salt] | 0.1 to 1 µM
14 | CCn1cc(CO[C@H](c2ccc(C)c(CN3C[C@@H](C)Cc4ccncc4S3(=O)=O)c2)C(C)(C)C(=O)Nc2cccnc2)nn1 [Example 48, (R)-3-((1-Ethyl-1H-1,2,3-triazol-4-yl)methoxy)-2,2-dimethyl-3-(4-methyl-3-(((S)-4-methyl-1,1-dioxido-4,5-dihydropyrido[4,3-f][1,2]thiazepin-2(3H)-yl)methyl)phenyl)-N-(pyridin-3-yl)propanamide, Formic Acid Salt] | 0.1 to 1 µM
15 | CCn1cc(CO[C@H](c2ccc(C)c(CN3C[C@@H](C)Cc4ccccc4S3(=O)=O)c2)C(C)(C)C(=O)Nc2cccnc2)nn1 [Example 49, (R)-3-((1-Ethyl-1H-1,2,3-triazol-4-yl)methoxy)-2,2-dimethyl-3-(4-methyl-3-(((S)-4-methyl-1,1-dioxido-4,5-dihydrobenzo[f][1,2]thiazepin-2(3H)-yl)methyl)phenyl)-N-(pyridin-3-yl)propanamide, Formic acid salt] | 0.1 to 1 µM
16 | CCCn1cc(CO[C@H](c2ccc(C)c(CN3C[C@@H](C)Cc4ncccc4S3(=O)=O)c2)C(C)(C)C(=O)Nc2cccnc2)nn1 [Example 50, (R)-2,2-Dimethyl-3-(4-methyl-3-(((S)-4-methyl-1,1-dioxido-4,5-dihydropyrido[2,3-f][1,2]thiazepin-2(3H)-yl)methyl)phenyl)-3-((1-propyl-1H-1,2,3-triazol-4-yl)methoxy)-N-(pyridin-3-yl)propanamide, Formic acid salt] | 0.1 to 1 µM
17 | CCCn1cc(CO[C@H](c2ccc(C)c(CN3C[C@@H](C)Cc4ccc(C(F)(F)F)cc4S3(=O)=O)c2)C(C)(C)C(=O)Nc2cccnc2)nn1 [Example 52, (R)-2,2-Dimethyl-3-(4-methyl-3-(((S)-4-methyl-1,1-dioxido-8-(trifluoromethyl)-4,5-dihydrobenzo[f][1,2]thiazepin-2(3H)-yl)methyl)phenyl)-3-((1-propyl-1H-1,2,3-triazol-4-yl)methoxy)-N-(pyridin-3-yl)propanamide] | 0.001 to 0.01 µM
18 | CCCn1cc(CO[C@H](c2ccc(C)c(CN3CC(C)(C)Oc4ccccc4S3(=O)=O)c2)C(C)(C)C(=O)Nc2cccnc2)nn1 [Example 53, (R)-3-(3-((4,4-Dimethyl-1,1-dioxido-3,4-dihydro-2H-benzo[b][1,4,5]oxathiazepin-2-yl)methyl)-4-methylphenyl)-2,2-dimethyl-3-((1-propyl-1H-1,2,3-triazol-4-yl)methoxy)-N-(pyridin-3-yl)propanamide] | 0.1 to 1 µM
19 | CCCn1cc(CO[C@H](c2ccc(C)c(CN3C[C@@H](CC)Oc4ccccc4S3(=O)=O)c2)C(C)(C)C(=O)Nc2cccnc2)nn1 [Example 55, (R)-3-(3-(((R)-4-Ethyl-1,1-dioxido-3,4-dihydro-2H-benzo[b][1,4,5]oxathiazepin-2-yl)methyl)-4-methylphenyl)-2,2-dimethyl-3-((1-propyl-1H-1,2,3-triazol-4-yl)methoxy)-N-(pyridin-3-yl)propanamide] | 0.1 to 1 µM

Same assay, conditions: Homo sapiens, in some determinations, read-out: EC50 values in some determinations

Row | SMILES | EC50
20 | CC[C@@H]1CN(Cc2cc([C@H](CC(=O)NCCNC(C)=O)c3ccc4c(nnn4CC)c3C)ccc2C)S(=O)(=O)c2cccnc2O1 [Example 45, (S)—N-(2-Acetamidoethyl)-3-(3-(((R)-4-ethyl-1,1-dioxido-3,4-dihydro-2H-pyrido[2,3-b][1,4,5]oxathiazepin-2-yl)methyl)-4-methylphenyl)-3-(1-ethyl-4-methyl-1H-benzo[d][1,2,3]triazol-5-yl)propanamide] | < 0.00017 µM
